Experimental data published in ChEMBL document CHEMBL5154690, “Discovery of a tricyclic farnesoid X receptor agonist HEC96719, a clinical candidate for treatment of non-alcoholic steatohepatitis” (Eur J Med Chem, 2022).
Activity calls are given as the source filed them. The rule behind the calls is not given here.

Columns and labels:
[1] = Volume of distribution at steady state in male Sprague-Dawley rat at 1 mg/kg, iv measured by LC-MS/MS analysis; assay type: ADME, organism-based; conditions: in vivo, read-out: Vdss
[2] = Oral bioavailability in male Sprague-Dawley rat at 5 mg/kg measured by LC-MS/MS analysis; assay type: ADME, organism-based; conditions: in vivo
[3] = tested on: Mus musculus; assay: Anti-NASH activity against high fat (HF) diet-induced nonalcoholic steatohepatitis in leptin-deficient ob/ob mouse model assessed as reduction in serum TG level at 3 mg/kg, po administered once daily from week 5 to 10; assay type: functional, organism-based
[4] = target: T1, Peroxisome proliferator-activated receptor delta (Homo sapiens, UniProt Q03181); assay: Agonist activity at PPARdelta (unknown origin)
T1 sequence (Q03181 whole entry): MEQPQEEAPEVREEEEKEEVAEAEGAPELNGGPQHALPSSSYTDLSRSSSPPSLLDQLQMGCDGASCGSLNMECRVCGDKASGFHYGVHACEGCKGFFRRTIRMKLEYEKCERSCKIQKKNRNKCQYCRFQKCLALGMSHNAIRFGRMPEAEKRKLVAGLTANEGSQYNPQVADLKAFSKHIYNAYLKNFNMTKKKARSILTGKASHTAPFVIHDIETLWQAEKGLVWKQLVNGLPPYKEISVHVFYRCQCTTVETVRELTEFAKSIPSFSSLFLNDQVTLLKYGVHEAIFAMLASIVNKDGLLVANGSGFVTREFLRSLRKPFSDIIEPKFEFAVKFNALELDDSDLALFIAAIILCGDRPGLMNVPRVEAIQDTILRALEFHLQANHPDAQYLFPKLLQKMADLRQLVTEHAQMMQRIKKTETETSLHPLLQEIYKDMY

[5] = target: T2, Nuclear receptor subfamily 1 group I member 2 (Homo sapiens, UniProt O75469); assay: Agonist activity at PXR (unknown origin)
T2 sequence (O75469 whole entry): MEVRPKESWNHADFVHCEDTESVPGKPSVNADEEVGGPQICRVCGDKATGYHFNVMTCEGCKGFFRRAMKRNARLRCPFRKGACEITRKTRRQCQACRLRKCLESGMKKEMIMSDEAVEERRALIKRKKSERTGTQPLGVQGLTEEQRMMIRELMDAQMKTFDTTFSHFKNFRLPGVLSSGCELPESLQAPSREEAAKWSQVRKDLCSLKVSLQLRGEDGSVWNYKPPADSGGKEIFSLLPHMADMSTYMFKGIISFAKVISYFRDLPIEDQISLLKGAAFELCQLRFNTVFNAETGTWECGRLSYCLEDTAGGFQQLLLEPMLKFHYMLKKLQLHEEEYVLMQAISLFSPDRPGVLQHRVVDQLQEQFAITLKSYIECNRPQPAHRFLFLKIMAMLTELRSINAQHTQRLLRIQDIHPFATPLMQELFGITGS

[6] = target: T3, Bile acid receptor (Rattus norvegicus) (UniProt Q62735); assay: In vivo activation of FXR in male Sprague-Dawley rat assessed as fold increase in liver BSEP level at 5 mg/kg, po administered as single dose measured at 1 hr by RT-qPCR assay; assay type: functional, organism-based
T3 sequence (whole entry): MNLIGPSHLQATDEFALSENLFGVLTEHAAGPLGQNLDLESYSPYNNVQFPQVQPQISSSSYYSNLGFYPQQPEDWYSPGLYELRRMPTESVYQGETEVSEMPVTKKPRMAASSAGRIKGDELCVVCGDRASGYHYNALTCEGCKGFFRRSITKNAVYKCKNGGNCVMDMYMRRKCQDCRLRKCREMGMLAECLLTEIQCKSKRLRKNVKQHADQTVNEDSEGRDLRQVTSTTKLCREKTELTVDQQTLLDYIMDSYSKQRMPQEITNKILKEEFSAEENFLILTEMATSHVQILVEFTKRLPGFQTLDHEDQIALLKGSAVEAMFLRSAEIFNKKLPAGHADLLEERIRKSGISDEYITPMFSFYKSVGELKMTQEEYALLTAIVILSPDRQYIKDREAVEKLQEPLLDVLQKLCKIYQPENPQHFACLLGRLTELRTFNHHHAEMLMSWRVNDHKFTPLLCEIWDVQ

[7] = tested on: Mus musculus; assay: Anti-NASH activity against high fat (HF) diet-induced nonalcoholic steatohepatitis in leptin-deficient ob/ob mouse model assessed as reduction in serum TG level at 0.1 to 1 mg/kg, po administered once daily from week 5 to 10; assay type: functional, organism-based; conditions: dose 0.1-1 mg/kg
[8] = Half-life in male C57BL/6 mouse at 2 mg/kg, iv measured by LC-MS/MS analysis; assay type: ADME, organism-based; conditions: in vivo
[9] = Volume of distribution at steady state in male C57BL/6 mouse at 2 mg/kg, iv measured by LC-MS/MS analysis; assay type: ADME, organism-based; conditions: in vivo, read-out: Vdss
[10] = Oral bioavailability in male C57BL/6 mouse at 5 mg/kg measured by LC-MS/MS analysis; assay type: ADME, organism-based; conditions: in vivo
[11] = Half-life in male Beagle dog at 1 mg/kg, iv measured by LC-MS/MS analysis; assay type: ADME, organism-based, Canis lupus familiaris; conditions: in vivo
[12] = Volume of distribution at steady state in male Beagle dog at 1 mg/kg, iv measured by LC-MS/MS analysis; assay type: ADME, organism-based, Canis lupus familiaris; conditions: in vivo, read-out: Vdss
[13] = Drug recovery in brain of male Sprague-Dawley rat at 4.5 mg/kg, po administered as C14-lableled compound and assessed as radioactivity and measured at 0.25 hrs; assay type: ADME, organism-based; conditions: in vivo, BLD = below limit of detection
[14] = Drug recovery in pancreas of male Sprague-Dawley rat at 4.5 mg/kg, po administered as C14-lableled compound and assessed as radioactivity and measured at 0.25 hrs; assay type: ADME, organism-based; conditions: in vivo
[15] = Drug recovery in stomach of male Sprague-Dawley rat at 4.5 mg/kg, po administered as C14-lableled compound and assessed as radioactivity and measured at 0.25 hrs; assay type: ADME, organism-based; conditions: in vivo
[16] = Drug recovery in ileum of male Sprague-Dawley rat at 4.5 mg/kg, po administered as C14-lableled compound and assessed as radioactivity and measured at 1 hr; assay type: ADME, organism-based; conditions: in vivo
[17] = Drug recovery in spleen of male Sprague-Dawley rat at 4.5 mg/kg, po administered as C14-lableled compound and assessed as radioactivity and measured at 6 hrs; assay type: ADME, organism-based; conditions: in vivo, BLD = below limit of detection
[18] = Drug recovery in pancreas of male Sprague-Dawley rat at 4.5 mg/kg, po administered as C14-lableled compound and assessed as radioactivity and measured at 6 hrs; assay type: ADME, organism-based; conditions: in vivo, BLD = below limit of detection
[19] = Drug recovery in lung of male Sprague-Dawley rat at 4.5 mg/kg, po administered as C14-lableled compound and assessed as radioactivity and measured at 6 hrs; assay type: ADME, organism-based; conditions: in vivo
[20] = Drug recovery in liver of male Sprague-Dawley rat at 4.5 mg/kg, po administered as C14-lableled compound and assessed as radioactivity and measured at 6 hrs; assay type: ADME, organism-based; conditions: in vivo
[21] = Drug recovery in spleen of male Sprague-Dawley rat at 4.5 mg/kg, po administered as C14-lableled compound and assessed as radioactivity and measured at 24 hrs; assay type: ADME, organism-based; conditions: in vivo, BLD = below limit of detection
[22] = target: Voltage-gated inwardly rectifying potassium channel KCNH2 (Homo sapiens, UniProt Q12809); assay: Inhibition of hERG; assay type: toxicity
[23] = Mutagenecity in Salmonella typhimurium TA98 measured by Ames test; assay type: toxicity; conditions: salmonella enterica subsp. enterica serovar typhimurium
[24] = Toxicity in po dosed Sprague-Dawley rat assessed as maximum tolerated dose; assay type: organism-based; conditions: in vivo

Chain of Voltage-gated inwardly rectifying potassium channel KCNH2 (Q12809 whole entry): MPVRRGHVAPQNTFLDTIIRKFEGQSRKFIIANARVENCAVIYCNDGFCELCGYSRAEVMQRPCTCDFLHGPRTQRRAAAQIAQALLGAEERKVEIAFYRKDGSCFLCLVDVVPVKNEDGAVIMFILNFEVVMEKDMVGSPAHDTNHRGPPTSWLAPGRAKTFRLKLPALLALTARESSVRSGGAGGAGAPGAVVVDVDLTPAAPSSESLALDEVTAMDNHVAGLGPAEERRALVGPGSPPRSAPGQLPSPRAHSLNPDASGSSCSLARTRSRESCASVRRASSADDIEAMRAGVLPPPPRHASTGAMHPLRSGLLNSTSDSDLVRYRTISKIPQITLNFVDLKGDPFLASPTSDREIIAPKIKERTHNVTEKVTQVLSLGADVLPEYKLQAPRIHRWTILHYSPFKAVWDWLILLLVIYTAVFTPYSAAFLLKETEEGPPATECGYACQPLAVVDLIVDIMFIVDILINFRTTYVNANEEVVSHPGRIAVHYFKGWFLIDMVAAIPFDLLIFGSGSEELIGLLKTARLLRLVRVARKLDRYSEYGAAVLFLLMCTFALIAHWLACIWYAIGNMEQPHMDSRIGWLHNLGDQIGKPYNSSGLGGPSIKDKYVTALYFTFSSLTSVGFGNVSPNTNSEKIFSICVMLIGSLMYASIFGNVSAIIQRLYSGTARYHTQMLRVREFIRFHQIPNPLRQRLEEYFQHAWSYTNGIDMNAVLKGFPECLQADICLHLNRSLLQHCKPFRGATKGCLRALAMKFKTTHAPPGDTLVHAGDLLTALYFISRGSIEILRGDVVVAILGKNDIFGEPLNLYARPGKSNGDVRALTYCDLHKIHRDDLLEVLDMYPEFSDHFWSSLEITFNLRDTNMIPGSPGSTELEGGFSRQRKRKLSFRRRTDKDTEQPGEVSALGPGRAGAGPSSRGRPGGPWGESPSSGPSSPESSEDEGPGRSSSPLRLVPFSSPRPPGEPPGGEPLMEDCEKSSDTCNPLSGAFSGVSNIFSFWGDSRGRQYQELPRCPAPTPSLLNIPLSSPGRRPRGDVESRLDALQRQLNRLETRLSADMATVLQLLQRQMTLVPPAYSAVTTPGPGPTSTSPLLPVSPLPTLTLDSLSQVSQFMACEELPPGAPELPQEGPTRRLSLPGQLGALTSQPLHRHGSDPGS

## O=C(O)c1ccc2c(c1)Oc1ccc(OCc3c(-c4c(Cl)cccc4Cl)noc3C3CC3)nc1C1(CC1)C2
[1]
  Vd: 0.65 L/kg
[2]
  bioavailability: 50.8%
[3]
  Activity: Active
[4]
  EC50: > 10 µM
[5]
  EC50: > 10 µM
[6]
  fold change (FC): 2
[7]
  Activity: Active
[8]
  half-life: 0.47 h
[9]
  Vd: 3.83 L/kg
[10]
  bioavailability: 82.5%
[11]
  half-life: 2.97 h
[12]
  Vd: 1.12 L/kg
[13]
  Drug recovery: Bld
[14]
  Drug recovery: 177 ngequiv/g
[15]
  Drug recovery: 3213 ngequiv/g
[16]
  Drug recovery: 1553 ngequiv/g
[17]
  Drug recovery: Bld
[18]
  Drug recovery: Bld
[19]
  Drug recovery: 63.4 ngequiv/g
[20]
  Drug recovery: 521 ngequiv/g
[21]
  Drug recovery: Bld
[22]
  IC50: > 5.24 µM
[23]
  Activity: Non-Toxic
[24]
  MTD: 2000 mg/kg
